According to patent US7563793B2, “Pyrrolo[1,2-a]quinoxalin-5-(4H)-yl)sulfonyls and carbonyls and their use as estrogenic agents” (Wyeth, priority 2004, dated 2009):

Assays:
IL-6 = IL-6 assay (ELISA) in Ad5-wt-ER infected HAECT-1 cells (IL-1β induced); format: cell-based, human; settings: Homo sapiens; for IC50: HAECT1; for Emax: HAECT1, relative to maximal inhibition observed with E2, read-out: IL-6 Efficacy
Description: (§1) After four hours, cells were washed with EBM-BSA and incubated overnight in the same medium. […] After two hours, cells were washed and incubated at 34° C. for 1 hour. […] Control (no ER infection) cells were processed as above without Ad5-wt-hERα virus infection. […] Cells were subsequently washed with 300 μl of Dulbecco's phosphate buffered saline and lysed in 50 μl of Cell Culture Lysis Reagent (Promega). Luciferase was determined on a Wallac Victor^2 Luminometer (Gaithersburg, Md.) using 10 μl of lysate and mixing with 100 lμof Promega Luciferase Assay reagent. […] For IC50 and EC50 calculations, mean IL-6, luciferase or CK values versus log10 of the compound concentration were fitted to a four parameter logistic equation. The IC50/EC50 value, ‘Hill slope’, upper and lower limits of the curve were iteratively estimated.

creatine kinase = test: Creatine kinase assay in Ad5-wt-ER infected HAECT-1 cells; format: cell-based, human; settings: Homo sapiens; for EC50: HAECT1, CK stimulation, N/O = activity not observed at concentrations tested, read-out: CK IC50; for Emax: HAECT1, relative to maximal stimulation observed with E2, read-out: CK Efficacy
Description: as §1

ER/Nf-kB = test: ER/NF-κB luciferase reporter assay in Ad5-wt-ER infected HAECT-1 cells (IL-1β induced); format: cell-based, human; settings: for IC50: Homo sapiens, HAECT1; for ER/Nf-kB Efficacy: relative to maximal inhibition observed with E2
Description: as §1

SMILES | IC50 (IL-6) | Emax (IL-6) | EC50 (creatine kinase) | Emax (creatine kinase) | melting point | IC50 (ER/Nf-kB) | ER/Nf-kB Efficacy (ER/Nf-kB)
CC[C@H]1c2cccn2-c2c(cc(F)c(F)c2F)N1S(=O)(=O)c1ccc(O)cc1 [97 (S), 4-{[(4S)-4-ethyl-7,8,9-trifluoropyrrolo[1,2-a]quinoxalin-5(4H)-yl]sulfonyl}phenol] | 9 nM | 134% | 31 nM | 37% | 155 to 156 °C |  | 
CC[C@H]1c2ccc(C#N)n2-c2cc(F)c(F)cc2N1S(=O)(=O)c1ccc(O)cc1 [101 (S), (4S)-4-ethyl-7,8-difluoro-5-[(4-hydroxyphenyl)sulfonyl]-4,5-dihydropyrrolo[1,2-a]quinoxaline-1-carbonitrile] | 424 nM | 131% | 91 nM | 30% | 191 to 192 °C |  | 
CC[C@@H]1c2cccn2-c2cc(F)c(F)cc2N1S(=O)(=O)c1ccc(O)c(C)c1 [102 (R), 4-{[(4R)-4-ethyl-7,8-difluoropyrrolo[1,2-a]quinoxalin-5(4H)-yl]sulfonyl}-2-methylphenol] | 448 nM | 117% | 1770 nM | 31% | 160 to 162 °C |  | 
C[C@@H]1c2cccn2-c2ccc(F)cc2N1C(=O)c1ccc(O)cc1 [123 (R), 4-{[(4R)-7-fluoro-4-methylpyrrolo[1,2-a]quinoxalin-5(4H)-yl]carbonyl}phenol] | 23 nM | 112% | 198 nM | 27% | 125 to 129 °C |  | 
CC[C@@H]1c2cccn2-c2ccc(F)cc2N1C(=O)c1cccc(O)c1 [127 (R), 3-{[(4R)-4-ethyl-7-fluoropyrrolo[1,2-a]quinoxalin-5(4H)-yl]carbonyl}phenol] | 62 nM | 132% | 159 nM | 35% | 115 to 116 °C |  | 
CC[C@H]1c2ccc(C#N)n2-c2cc(F)c(F)cc2N1S(=O)(=O)c1ccc(O)c(C)c1 [Example 11B, (S)-4-ethyl-7,8-difluoro-5-[(4-hydroxy-3-methylphenyl)sulfonyl]-4,5-dihydropyrrolo[1,2-a]quinoxaline-1-carbonitrile] |  |  | 830 nM | 96% | 208 to 210 °C | 332 nM | 96%
CCC1c2ccc(C#N)n2-c2cc(F)c(F)cc2N1S(=O)(=O)c1ccc(O)c(C)c1 (centres unmarked) [Example 12, 4-ethyl-7,8-difluoro-5-[(4-hydroxy-3-methylphenyl)sulfonyl]-4,5-dihydropyrrolo[1,2-a]quinoxaline-1-carbonitrile] |  |  |  |  | 201 to 203 °C | 1820 nM | 91%
CCC1c2ccc(C#N)n2-c2ccc(F)cc2N1S(=O)(=O)c1ccc(O)c(C)c1 (centres unmarked) [Example 33, 4-ethyl-7-fluoro-5-[(4-hydroxy-3-methylphenyl)sulfonyl]-4,5-dihydropyrrolo[1,2-a]quinoxaline-1-carbonitrile] |  |  |  |  | 192 to 194 °C | 1320 nM | 208%
CCC1c2ccc(C#N)n2-c2ccc(F)cc2N1S(=O)(=O)c1ccc(O)cc1 (centres unmarked) [Example 35, 4-ethyl-7-fluoro-5-[(4-hydroxyphenyl)sulfonyl]-4,5-dihydropyrrolo[1,2-a]quinoxaline-1-carbonitrile] |  |  | 107 nM | 19% | 169 to 171 °C | 962 nM | 72%
CCC1c2ccc(C#N)n2-c2ccc(C(F)(F)F)cc2N1S(=O)(=O)c1ccc(O)c(C)c1 (centres unmarked) [Example 59, 4-ethyl-5-[(4-hydroxy-3-methylphenyl)sulfonyl]-7-(trifluoromethyl)-4,5-dihydropyrrolo[1,2-a]quinoxaline-1-carbonitrile] |  |  | 3000 nM | -13% | 194 to 196 °C | 9700 nM | 75%
CCC1c2cccn2-c2cc(O)c(F)cc2N1S(=O)(=O)c1ccc(O)c(C)c1 (centres unmarked) [Example 74, 4-ethyl-7-fluoro-5-[(4-hydroxy-3-methylphenyl)sulfonyl]-4,5-dihydropyrrolo[1,2-a]quinoxalin-8-ol] |  |  |  |  | 194 to 196 °C | 157 nM | 75%
CC[C@H]1c2cccn2-c2ccc(Br)cc2N1S(=O)(=O)c1ccc(O)cc1 [Example 77, 4-{[(4S)-7-bromo-4-ethylpyrrolo[1,2-a]quinoxalin-5(4H)-yl]sulfonyl}phenol] |  |  | 212 nM | 39% | 187 to 189 °C | 11 nM | 186%
CCC1c2ccc(C#N)n2-c2ccc(Br)cc2N1S(=O)(=O)c1ccc(O)cc1 (centres unmarked) [Example 80, 7-bromo-4-ethyl-5-[(4-hydroxyphenyl)sulfonyl]-4,5-dihydropyrrolo[1,2-a]quinoxaline-1-carbonitrile] | 444 nM | 103% |  |  | 190 to 192 °C |  | 
CCC1c2cccn2-c2ccc(Br)cc2N1S(=O)(=O)c1cccc(O)c1 (centres unmarked) [Example 82, 3-[(7-bromo-4-ethylpyrrolo[1,2-a]quinoxalin-5(4H)-yl)sulfonyl]phenol] | 51 nM | 114% |  |  | 176 to 178 °C |  | 
CCC1c2ccc(C#N)n2-c2cc(F)c(F)cc2N1S(=O)(=O)c1cccc(O)c1 (centres unmarked) [Example 85, 4-ethyl-7,8-difluoro-5-[(3-hydroxyphenyl)sulfonyl]-4,5-dihydropyrrolo[1,2-a]quinoxaline-1-carbonitrile] | 696 nM | 112% |  |  | 179 to 182 °C |  | 
CCC1c2cccn2-c2ccc(F)cc2N1S(=O)(=O)c1cccc(O)c1 (centres unmarked) [Example 87, 3-[(4-ethyl-7-fluoropyrrolo[1,2-a]quinoxalin-5(4H)-yl)sulfonyl]phenol] | 41 nM | 112% | 205 nM | 33% | 153 to 154 °C |  | 
CC[C@H]1c2ccc(C#N)n2-c2ccc(Br)cc2N1S(=O)(=O)c1ccc(O)cc1 [Example 89, (4S)-7-bromo-4-ethyl-5-[(4-hydroxyphenyl)sulfonyl]-4,5-dihydropyrrolo[1,2-a]quinoxaline-1-carbonitrile] | 150 nM | 188% | 9.9 nM | 7% | 189 to 191 °C |  | 
CC[C@@H]1c2ccc(C#N)n2-c2ccc(Br)cc2N1S(=O)(=O)c1ccc(O)cc1 [Example 91, (4R)-7-bromo-4-ethyl-5-[(4-hydroxyphenyl)sulfonyl]-4,5-dihydropyrrolo[1,2-a]quinoxaline-1-carbonitrile] | 1460 nM | 86% |  | -4% | 182 to 185 °C |  | 
CCC1c2ccc(C#N)n2-c2cc(F)c(F)cc2N1S(=O)(=O)c1ccc(O)cc1 (centres unmarked) [Example 93, 4-ethyl-7,8-difluoro-5-[(4-hydroxyphenyl)sulfonyl]-4,5-dihydropyrrolo[1,2-a]quinoxaline-1-carbonitrile] | 299 nM | 105% |  |  | 205 °C |  | 
CCC1c2cccn2-c2c(cc(F)c(F)c2F)N1S(=O)(=O)c1ccc(O)cc1 (centres unmarked) [Example 98, 4-[(4-ethyl-7,8,9-trifluoropyrrolo[1,2-a]quinoxalin-5(4H)-yl)sulfonyl]phenol] | 92 nM | 117% |  |  | 175 to 176 °C |  | 
CCC1c2cccn2-c2c(cc(F)c(F)c2F)N1S(=O)(=O)c1cccc(O)c1 (centres unmarked) [Example 100, 3-[(4-ethyl-7,8,9-trifluoropyrrolo[1,2-a]quinoxalin-5(4H)-yl)sulfonyl]phenol] | 14 nM | 193% | 99 nM | 42% | 143 to 145 °C |  | 
CC[C@H]1c2ccc(C#N)n2-c2cc(F)c(F)cc2N1S(=O)(=O)c1ccc(OS(N)(=O)=O)c(C)c1 [Example 103, 4-{[(4S)-1-cyano-4-ethyl-7,8-difluoropyrrolo[1,2-a]quinoxalin-5(4H)-yl]sulfonyl}-2-methylphenyl sulfamate] | 101 nM | 93% | 34 nM | -18% | 204 to 207 °C |  | 
CC[C@H]1c2ccc(C#N)n2-c2cc(F)c(F)cc2N1S(=O)(=O)c1ccc(OS(N)(=O)=O)cc1 [Example 104, 4-{[(4S)-1-cyano-4-ethyl-7,8-difluoropyrrolo[1,2-a]quinoxalin-5(4H)-yl]sulfonyl}phenyl sulfamate] | 178 nM | 110% |  |  | 196 to 201 °C |  | 
CCC1c2cccn2-c2ccc(F)cc2N1C(=O)c1ccc(O)cc1 (centres unmarked) [Example 118, 4-[(4-ethyl-7-fluoropyrrolo[1,2-a]quinoxalin-5(4H)-yl)carbonyl]phenol] | 3 nM | 95% | 20 nM | 32% | 165 to 167 °C |  | 
